Source: patent publication US20250114356A1, “INDAZOLE BASED COMPOUNDS AND ASSOCIATED METHODS OF USE” (Arvinas Operations, Inc., priority 2020, published 2025)

Experiments:
G2019S LRRK2 = molecular target: T1, G2019S LRRK2 (Homo sapiens, UniProt Q5S007, G2019S); assay: LRRK2 degradation assay, G2019S LRRK2-HiBit expressed from plasmid in HEK293 cells; format: cell-based; details: HEK293 cells transfected with HiBit-tagged G2019S LRRK2, 24 hours compound incubation
T1 construct: expressed in transfected cells; host or cells: HEK293 (ATCC CRL-1573), transient transfection, ubiquitin promoter
Description: (§1) The assay measures the degradation of wildtype and G2019S LRRK2 tagged with a HiBit tag on the C-terminus of the protein that was expressed from a mammalian expression vector, driven by the ubiquitin promoter in HEK293 cells. Each compound dose-response was repeated on two separate days, on three separate plates each day.
(§2) Plasmid Preparation. Transfection mixes were assembled as follows and incubated for 30 minutes at room temperature. In a 15 mL tube, 5.25 mL Opti-MEM (no additions) was mixed with 17 μL Firefly Luciferase plasmid at 1 μg/μL and 158 μL WT plasmid DNA at 1 μg/μL (175 μg total DNA) were mixed by flicking. In a new 15 mL tube, 5.25 mL OptiMEM was mixed with 17 μL Firefly Luciferase plasmid at 1 μg/μL and 158 μL G2019S plasmid DNA at 1 μg/μL (175 μg total DNA) were mixed by flicking. X-tremeGene HP was mixed thoroughly using a vortex. Next, 175 μL was added to each tube and flicked to mix. Both tubes were left to incubate for 30 minutes at room temperature.
(§3) While the transfection mixes were incubating, HEK293 cells (acquired from ATCC; ATCC CRL-1573) were harvested with trypsin. Once cells are detached, the cells were resuspended in 12 mL OptiMEM+5% FBS and transferred to a 50 mL tube. The cells were mixed well and counted. Using OptiMEM+5% FBS, the cells were diluted in two 250 mL conical tubes at 0.71×10^6 cells/mL in 70 mL. One tube was labeled “WT” and the other “G2019S”. The WT and G2019S transfection mixes were added dropwise to the corresponding 250 mL tubes. The tubes were mixed first by pipetting then by swirling. The tubes were incubated at room temperature for at least 5 minutes.
(§4) Each tube was swirled before dispensing and after every three plates. Seventy microliters of cells were dispensed with WT or G2019S DNA to seven plates each. Three plates of each were tested with compound plate one (preparation described below) and three plates of each were tested with compound plate two (preparation described below). The first plate from each set served as a “prime” plate and was not used to test compounds. Each plate was incubated in the hood for 10 minutes before placing in the 37° C. incubator for 24 hours.
(§5) Preparation of Compound and Assay Plates. Two compound plates were made using 96 well polypropylene plates. Compounds were made up at 10 mM and were diluted to 1 mM in 30 μL. Each dose response curve included a well of DMSO, as a negative control and for normalization, and a well of 0.5 μM of Exemplary Compound 4 as a positive control. In addition to seven test compounds, each plate also included a dose response of Exemplary Compound 4. The compound plates were spun down along at 1200 rpm for 2 minutes.
(§6) The two compound plates were then mixed and 2 μL was diluted in intermediate plates having 248 μL of Opti-Mem in each well. Next, 10 μL diluted compounds from the intermediate plates were added to each test plate (three WT and three G2019S plates per compound plate for a total of 12 assay plates). The plates were incubated for 24 hours at 37° C.
(§7) All assay plates and all Nano-Glo Dual-Luciferase Reporter Assay System components (except for the DLR substrate) were equilibrated to room temperature. Next, the luciferase buffer was mixed with the lyophilized amber bottle until fully dissolved, and 75 μL of the luciferase mixture was added to each well of each assay plate. The assay plates were incubated for 10 minutes at room temperature with shaking for at least 5 minutes, and then read on a plate reader.
(§8) Developing Plates and Analyzing Data. One milliliter of DLR substrate and 1 mL LgBiT Protein were added to the Stop and Glo buffer, and 75 μL of the mixture was added to each well of each plate. Optically clear seals were added to each plate and each plate was incubated for 20 minutes with shaking for at least 10 minutes, and then read on a plate reader. […]

wildtype LRRK2 = molecular target: T2, wildtype LRRK2 (Homo sapiens, UniProt Q5S007); assay: LRRK2 degradation assay, wildtype LRRK2-HiBit expressed from plasmid in HEK293 cells; format: cell-based; details: HEK293 cells transfected with HiBit-tagged wildtype LRRK2, 24 hours compound incubation; for Dmax: read-out: **WT Dmax (%); for DC50: read-out: *WT DC50
T2 construct: expressed in transfected cells; host or cells: HEK293 (ATCC CRL-1573), transient transfection, ubiquitin promoter
Description: as §1, §2, §3, §4, §5, §6, §7, §8

T2 sequence (Q5S007 whole entry): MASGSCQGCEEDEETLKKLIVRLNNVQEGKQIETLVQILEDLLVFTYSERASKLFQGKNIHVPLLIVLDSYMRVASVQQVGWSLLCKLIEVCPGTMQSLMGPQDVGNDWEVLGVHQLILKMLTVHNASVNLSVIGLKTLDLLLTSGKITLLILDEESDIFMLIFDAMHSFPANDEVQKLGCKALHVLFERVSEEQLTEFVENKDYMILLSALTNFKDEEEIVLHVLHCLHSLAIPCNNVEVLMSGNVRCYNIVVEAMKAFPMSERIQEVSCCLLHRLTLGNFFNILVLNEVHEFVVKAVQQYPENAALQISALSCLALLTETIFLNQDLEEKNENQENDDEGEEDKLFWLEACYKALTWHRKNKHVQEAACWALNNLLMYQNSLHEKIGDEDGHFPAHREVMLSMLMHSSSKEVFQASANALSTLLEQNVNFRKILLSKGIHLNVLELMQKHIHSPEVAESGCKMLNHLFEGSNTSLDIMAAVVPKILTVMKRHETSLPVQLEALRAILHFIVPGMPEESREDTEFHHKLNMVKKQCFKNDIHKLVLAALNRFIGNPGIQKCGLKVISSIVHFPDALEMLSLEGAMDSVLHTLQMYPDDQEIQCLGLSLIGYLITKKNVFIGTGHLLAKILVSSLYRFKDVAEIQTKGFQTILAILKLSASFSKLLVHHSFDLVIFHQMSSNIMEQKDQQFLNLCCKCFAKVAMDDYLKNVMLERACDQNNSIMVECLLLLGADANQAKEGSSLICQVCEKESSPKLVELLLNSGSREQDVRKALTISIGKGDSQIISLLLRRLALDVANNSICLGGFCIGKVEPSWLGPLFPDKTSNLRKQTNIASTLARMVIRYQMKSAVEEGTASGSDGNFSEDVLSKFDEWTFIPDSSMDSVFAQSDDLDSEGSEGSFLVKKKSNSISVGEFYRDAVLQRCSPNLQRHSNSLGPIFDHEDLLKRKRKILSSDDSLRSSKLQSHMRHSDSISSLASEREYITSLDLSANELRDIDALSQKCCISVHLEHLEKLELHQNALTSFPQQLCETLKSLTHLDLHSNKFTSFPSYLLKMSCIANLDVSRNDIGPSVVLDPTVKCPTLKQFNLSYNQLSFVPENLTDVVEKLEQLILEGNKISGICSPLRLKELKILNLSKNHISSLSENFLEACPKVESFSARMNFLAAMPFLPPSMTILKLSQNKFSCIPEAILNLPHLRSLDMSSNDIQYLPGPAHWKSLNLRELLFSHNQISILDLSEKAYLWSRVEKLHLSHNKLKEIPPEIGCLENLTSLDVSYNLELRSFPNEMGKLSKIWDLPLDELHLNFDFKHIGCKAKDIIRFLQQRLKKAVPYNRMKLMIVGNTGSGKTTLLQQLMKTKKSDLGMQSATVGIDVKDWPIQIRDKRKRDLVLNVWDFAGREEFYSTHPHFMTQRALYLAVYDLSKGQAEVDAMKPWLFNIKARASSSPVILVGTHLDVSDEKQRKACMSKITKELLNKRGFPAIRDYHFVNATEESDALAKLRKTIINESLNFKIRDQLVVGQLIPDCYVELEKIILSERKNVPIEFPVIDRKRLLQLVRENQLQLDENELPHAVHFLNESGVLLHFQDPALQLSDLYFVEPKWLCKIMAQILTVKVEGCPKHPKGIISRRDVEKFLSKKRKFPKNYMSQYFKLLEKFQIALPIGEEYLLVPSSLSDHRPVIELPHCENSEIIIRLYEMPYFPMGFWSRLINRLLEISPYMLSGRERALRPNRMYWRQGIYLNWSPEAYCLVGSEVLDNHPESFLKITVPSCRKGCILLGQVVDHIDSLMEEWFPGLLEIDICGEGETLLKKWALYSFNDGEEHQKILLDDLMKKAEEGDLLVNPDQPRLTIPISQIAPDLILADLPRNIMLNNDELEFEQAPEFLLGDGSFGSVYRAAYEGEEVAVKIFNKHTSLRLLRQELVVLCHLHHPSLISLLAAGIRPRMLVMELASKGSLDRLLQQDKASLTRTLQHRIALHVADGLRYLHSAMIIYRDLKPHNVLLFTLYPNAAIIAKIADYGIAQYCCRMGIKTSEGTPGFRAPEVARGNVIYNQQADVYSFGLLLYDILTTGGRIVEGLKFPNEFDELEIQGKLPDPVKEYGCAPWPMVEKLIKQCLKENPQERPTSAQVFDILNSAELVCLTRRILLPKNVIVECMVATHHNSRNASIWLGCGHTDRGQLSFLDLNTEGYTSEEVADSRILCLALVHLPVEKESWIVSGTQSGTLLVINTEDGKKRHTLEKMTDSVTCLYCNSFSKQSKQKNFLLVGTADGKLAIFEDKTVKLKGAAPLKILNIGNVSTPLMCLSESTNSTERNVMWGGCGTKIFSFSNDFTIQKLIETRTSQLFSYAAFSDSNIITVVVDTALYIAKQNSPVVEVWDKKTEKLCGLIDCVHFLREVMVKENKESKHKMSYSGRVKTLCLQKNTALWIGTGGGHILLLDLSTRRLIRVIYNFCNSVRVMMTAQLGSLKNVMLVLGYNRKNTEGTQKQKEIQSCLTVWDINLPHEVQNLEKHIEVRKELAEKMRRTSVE
T1 sequence (Q5S007 whole entry G2019S): as the sequence (Q5S007 whole entry) above, with G2019S counted along it

Structure (SMILES)	DC50 (G2019S LRRK2) [nM]	Dmax (G2019S LRRK2) [%]	Dmax (wildtype LRRK2) [%]	DC50 (wildtype LRRK2) [nM]
C[C@H]1CN(c2cc(-c3n[nH]c4ccc(OC5(C)CC5)cc34)ncn2)CCN1CCOCCOc1ccc2c(c1)C(=O)N(C1CCC(=O)NC1=O)C2=O (stereo partly drawn) [compound 2, 2-(2,6-dioxopiperidin-3-yl)-5-(2-{2-[(2S)-2-methyl-4-{6-[5-(1-methylcyclopropoxy)-1H-indazol-3-yl]pyrimidin-4-yl}piperazin-1-yl]ethoxy}ethoxy)-2,3-dihydro-1H-isoindole-1,3-dione]	< 10	< 50	50 to 70	< 10
C[C@H]1CN(c2cc(-c3n[nH]c4ccc(OC(C)(C)C)cc34)ncn2)CCN1CCOCCOCCOCCOc1ccc2c(c1)C(=O)N(C1CCC(=O)NC1=O)C2=O (stereo partly drawn) [compound 16, 5-{2-[2-(2-{2-[(2S)-4-{6-[5-(tert-butoxy)-1H-indazol-3-yl]pyrimidin-4-yl}-2-methylpiperazin-1-yl]ethoxy}ethoxy)ethoxy]ethoxy}-2-(2,6-dioxopiperidin-3-yl)-2,3-dihydro-1H-isoindole-1,3-dione]	≥ 100	< 50	< 50	≥ 100
CC(C)Oc1ccc2[nH]nc(-c3cc(N4CCN(CCN5CC(OCCOc6ccc7c(c6)C(=O)N(C6CCC(=O)NC6=O)C7=O)C5)[C@@H](C)C4)ncn3)c2c1 (stereo partly drawn) [compound 32, 2-(2,6-dioxopiperidin-3-yl)-5-{2-[(1-{2-[(2S)-2-methyl-4-{6-[5-(propan-2-yloxy)-1H-indazol-3-yl]pyrimidin-4-yl}piperazin-1-yl]ethyl}azetidin-3-yl)oxy]ethoxy}-2,3-dihydro-1H-isoindole-1,3-dione]	≥ 100	< 50	< 50	≥ 100
CC(C)Oc1ccc2[nH]nc(-c3cc(N4CCN(CC(F)(F)C5CCN(CC6CCN(c7ccc8c(c7)C(=O)N(C7CCC(=O)NC7=O)C8=O)CC6)CC5)CC4)ncn3)c2c1 (stereo not shown) [compound 40, 5-(4-((4-(1,1-difluoro-2-(4-(6-(5-isopropoxy-1H-indazol-3-yl)pyrimidin-4-yl)piperazin-1-yl)ethyl)piperidin-1-yl)methyl)piperidin-1-yl)-2-(2,6-dioxopiperidin-3-yl)isoindoline-1,3-dione]	10 to 50	50 to 70	≥ 70	10 to 50
C[C@H]1CN(c2cc(-c3n[nH]c4ccc(OC5(C)CC5)cc34)ccn2)CCN1CCOCCOCCOCCOc1ccc2c(c1)C(=O)N(C1CCC(=O)NC1=O)C2=O (stereo partly drawn) [compound 12, 2-(2,6-dioxopiperidin-3-yl)-5-{2-[2-(2-{2-[(2S)-2-methyl-4-{4-[5-(1-methylcyclopropoxy)-1H-indazol-3-yl]pyridin-2-yl}piperazin-1-yl]ethoxy}ethoxy)ethoxy]ethoxy}-2,3-dihydro-1H-isoindole-1,3-dione]	< 10	≥ 70	≥ 70	< 10
CC(C)Oc1ccc2[nH]nc(-c3cc(N4CCN(CCN(C)CCN5CCN(c6ccc7c(c6)C(=O)N(C6CCC(=O)NC6=O)C7=O)CC5)[C@@H](C)C4)ncn3)c2c1 (stereo partly drawn) [compound 37, 2-(2,6-dioxopiperidin-3-yl)-5-(4-{2-[methyl({2-[(2S)-2-methyl-4-{6-[5-(propan-2-yloxy)-1H-indazol-3-yl]pyrimidin-4-yl}piperazin-1-yl]ethyl})amino]ethyl}piperazin-1-yl)-2,3-dihydro-1H-isoindole-1,3-dione]	50 to 100	50 to 70	50 to 70	≥ 100
CC(C)Oc1ccc2[nH]nc(-c3cc(N4CCN(CCN5CCN(CC6CCN(c7ccc8c(c7)C(=O)N(C7CCC(=O)NC7=O)C8=O)CC6)CC5)[C@@H](C)C4)ncn3)c2c1 (stereo partly drawn) [compound 26, 2-(2,6-dioxopiperidin-3-yl)-5-{4-[(4-{2-[(2S)-2-methyl-4-{6-[5-(propan-2-yloxy)-1H-indazol-3-yl]pyrimidin-4-yl}piperazin-1-yl]ethyl}piperazin-1-yl)methyl]piperidin-1-yl}-2,3-dihydro-1H-isoindole-1,3-dione]	10 to 50	≥ 70	≥ 70	10 to 50
CC(C)Oc1ccc2[nH]nc(-c3cc(N4CCN(CC[C@H]5CCN(CC6CCN(c7ccc8c(c7)C(=O)N(C7CCC(=O)NC7=O)C8=O)CC6)C5)CC4)ncn3)c2c1 (stereo partly drawn) [compound 42, 2-(2,6-dioxopiperidin-3-yl)-5-(4-(((R)-3-(2-(4-(6-(5-isopropoxy-1H-indazol-3-yl)pyrimidin-4-yl)piperazin-1-yl)ethyl)pyrrolidin-1-yl)methyl)piperidin-1-yl)isoindoline-1,3-dione]	10 to 50	50 to 70	50 to 70	10 to 50
CC1(Oc2ccc3[nH]nc(-c4cc(N5CCN(CCN6CCC(CN7CCN(c8ccc9c(c8)C(=O)N(C8CCC(=O)NC8=O)C9=O)CC7)CC6)CC5)ncn4)c3c2)CC1 (stereo not shown) [compound 28, 2-(2,6-dioxopiperidin-3-yl)-5-[4-({1-[2-(4-{6-[5-(1-methylcyclopropoxy)-1H-indazol-3-yl]pyrimidin-4-yl}piperazin-1-yl)ethyl]piperidin-4-yl}methyl)piperazin-1-yl]-2,3-dihydro-1H-isoindole-1,3-dione]	< 10	≥ 70	≥ 70	< 10
CC(C)Oc1ccc2[nH]nc(-c3cc(N4CCN(CCCN(C)CCCN5CCN(c6ccc7c(c6)C(=O)N(C6CCC(=O)NC6=O)C7=O)CC5)[C@@H](C)C4)ncn3)c2c1 (stereo partly drawn) [compound 38, 2-(2,6-dioxopiperidin-3-yl)-5-(4-{3-[methyl({3-[(2S)-2-methyl-4-{6-[5-(propan-2-yloxy)-1H-indazol-3-yl]pyrimidin-4-yl}piperazin-1-yl]propyl})amino]propyl}piperazin-1-yl)-2,3-dihydro-1H-isoindole-1,3-dione]	≥ 100	≥ 70	≥ 70	50 to 100
CC1(Oc2ccc3[nH]nc(-c4cc(N5CCO[C@@H](CCOCCOCCOCCOc6ccc7c(c6)C(=O)N(C6CCC(=O)NC6=O)C7=O)C5)ncn4)c3c2)CC1 (stereo partly drawn) [compound 18, 2-(2,6-dioxopiperidin-3-yl)-5-{2-[2-(2-{2-[(2S)-4-{6-[5-(1-methylcyclopropoxy)-1H-indazol-3-yl]pyrimidin-4-yl}morpholin-2-yl]ethoxy}ethoxy)ethoxy]ethoxy}-2,3-dihydro-1H-isoindole-1,3-dione]	< 10	≥ 70	≥ 70	< 10
CC(C)Oc1ccc2[nH]nc(-c3cc(N4CCN(CC5CCN(CC6CCN(c7ccc8c(c7)C(=O)N(C7CCC(=O)NC7=O)C8=O)CC6)CC5)[C@@H](C)C4)ncn3)c2c1 (stereo partly drawn) [compound 25, 2-(2,6-dioxopiperidin-3-yl)-5-{4-[(4-{[(2S)-2-methyl-4-{6-[5-(propan-2-yloxy)-1H-indazol-3-yl]pyrimidin-4-yl}piperazin-1-yl]methyl}piperidin-1-yl)methyl]piperidin-1-yl}-2,3-dihydro-1H-isoindole-1,3-dione]	< 10	≥ 70	≥ 70	< 10
CC(C)Oc1ccc2[nH]nc(-c3cc(N4CCN(CCN5CCC(CC6CCN(c7ccc8c(c7)C(=O)N(C7CCC(=O)NC7=O)C8=O)CC6)CC5)CC4)ncn3)c2c1 (stereo not shown) [compound 51, 2-(2,6-dioxopiperidin-3-yl)-5-(4-((1-(2-(4-(6-(5-isopropoxy-1H-indazol-3-yl)pyrimidin-4-yl)piperazin-1-yl)ethyl)piperidin-4-yl)methyl)piperidin-1-yl)isoindoline-1,3-dione]	10 to 50	50 to 70	50 to 70	10 to 50
